From patent publication US9732037B2, “2-aminopyridine-based selective neuronal nitric oxide synthase inhibitors” (Northwestern University, priority 2013, dated 2017) come the findings set out here.

The structures appear in SMILES notation.

Common to all, as to format: biochemical
In assay [1] the target is bovine eNOS (Bos taurus (Bovine), UniProt P29473). Put plainly: NOS inhibition assay, eNOS. The settings on record: for Ki: bovine eNOS, KM 1.7 μM, Ki = IC50/(1 + [S]/KM); for Selectivity e/n: ratio of Ki (eNOS) to nNOS.
Source text: (§1) Nitric oxide formation from NOS was monitored using literature techniques.
For assay [2], the target named is rat nNOS (Rattus norvegicus (Rat), UniProt P29476). Put plainly: NOS inhibition assay, nNOS. The conditions noted are these: KM 1.3 μM, Ki = IC50/(1 + [S]/KM).
Source text: as §1
Assay [3] has as its target murine iNOS (Mus musculus (Mouse), UniProt P29477). In words: NOS inhibition assay, iNOS. The settings on record: for Ki: murine iNOS, KM 8.2 μM, Ki = IC50/(1 + [S]/KM); for Selectivity i/n: ratio of Ki (iNOS) to nNOS.
Source text: as §1

Turning to `Cc1cc(N)nc(COC[C@@H]2C[C@H](OCc3cc(C)cc(N)n3)CN2)c1` [Compound 8], in assay [1], the Ki (commonly the equilibrium dissociation constant of an inhibitor or competing ligand from its target) amounted to 2.36 µM and the Selectivity e/n was found to be 76. Further, the Ki in assay [2] is 0.031 µM. For the same compound, in assay [3], the Ki was 1.9 µM and the Selectivity i/n was 61.
For `Cc1cc(N)nc(CO[C@H]2CN[C@H](COCCOCc3cccc(F)c3)C2)c1` [Compound 12] the same measures were 7.96 µM, 52, 0.153 µM, 5.86 µM and 38.
The corresponding values for `Cc1cc(N)nc(COC[C@H]2C[C@@H](OCc3cc(C)cc(N)n3)CN2)c1` [Compound 7] are 3.47 µM, 102, 0.034 µM, 5.59 µM and 164.
For `Cc1cc(N)nc(COC[C@H]2C[C@H](OCc3cc(C)cc(N)n3)CN2)c1` [Compound 9] the same measures were 6.93 µM, 693, 0.01 µM, 2.95 µM and 295.
As to `Cc1cc(N)nc(CO[C@H]2CN[C@@H](COCCOCc3cccc(F)c3)C2)c1` [Compound 13], in assay [1], the Ki came out at 11.7 µM and the Selectivity e/n worked out at 35. Besides, the Ki in assay [2] was 0.33 µM. Also, in assay [3], the Ki was 8.47 µM and the Selectivity i/n is listed as 26.
On to `Cc1cc(N)nc(COc2cccc(OCc3ccncc3)c2)c1` [Compound 2], for which the Ki in assay [1] was found to be 62.8 µM; in assay [2], 0.616 µM; in assay [3] it was 27.1 µM.
For `Cc1cc(N)nc(COCCOC[C@@H]2C[C@@H](OCc3cc(C)cc(N)n3)CN2)c1` [Compound 10], in assay [1], the Ki was found to be 6.25 µM and the Selectivity e/n was determined as 89. In addition, in assay [2], the Ki was 0.07 µM. In assay [3], the Ki worked out at 2.32 µM and the Selectivity i/n came to 33.
Take `Cc1cc(N)nc(COc2cccc(OCCCN)c2)c1` [Compound 1]: the results for the Ki in assay [1], in assay [2] and in assay [3] were 18 µM, 0.06 µM and 8.47 µM, respectively.
For `Cc1cc(N)nc(COCCOC[C@H]2C[C@@H](OCc3cc(C)cc(N)n3)CN2)c1` [Compound 11], in assay [1], the Ki stood at 9.3 µM and the Selectivity e/n is given as 46. Besides, the Ki in assay [2] worked out at 0.199 µM. Also, in assay [3], the Ki amounted to 13.6 µM and the Selectivity i/n came out at 68.
The corresponding values for `Cc1cc(N)nc(COC[C@@H]2C[C@@H](OCc3cc(C)cc(N)n3)CN2)c1` [Compound 6] are 2.18 µM, 84, 0.026 µM, 2.27 µM and 87.
On to `Cc1cc(N)nc(COc2cccc(OCC3CCNCC3)c2)c1` [Compound 3], for which the Ki in assay [1] came to 28 µM; in assay [2], 0.117 µM; in assay [3], 17.1 µM.
